This note sets out measurements from paper PMC3653934, “Identification of Adiponectin Receptor Agonist Utilizing a Fluorescence Polarization Based High Throughput Assay” (PLoS ONE, 2013).

Where two headings read alike, the source gives them in different places.

One experiment addresses T1, AdipoR1 (Homo sapiens, UniProt Q96A54).
T1 construct: The cDNAs encoding full-length of AdipoR1 or AdipoR2 were then sub-cloned into the mammalian expression vector pBEX and pcDNA3.1–Myc-His(+); His (C); Myc (C); made in house; host or cells: CHO cells
T1 sequence (Q96A54 1-375): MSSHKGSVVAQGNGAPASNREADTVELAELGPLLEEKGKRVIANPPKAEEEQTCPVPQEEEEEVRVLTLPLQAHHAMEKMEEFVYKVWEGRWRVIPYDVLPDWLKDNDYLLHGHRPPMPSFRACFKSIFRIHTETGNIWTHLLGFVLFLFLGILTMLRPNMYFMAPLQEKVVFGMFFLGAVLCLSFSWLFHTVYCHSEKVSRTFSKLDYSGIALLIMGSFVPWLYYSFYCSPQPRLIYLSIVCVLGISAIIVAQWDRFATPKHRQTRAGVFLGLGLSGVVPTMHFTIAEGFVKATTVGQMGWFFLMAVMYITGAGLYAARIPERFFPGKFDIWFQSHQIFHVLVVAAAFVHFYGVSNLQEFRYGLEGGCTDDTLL
The experiment can be described thus: Competitive FP assay, displacement of probe 1 from AdipoR1. It counts as binding. As to conditions: 2 µM receptor, 100 nM probe 1, 30 min, 25°C. How it is done: (§1) Unlabeled short peptide 3 was titrated against the FITC-labeled peptide and adiponectin receptor mixture. Plates were incubated at room temperature for up to 3 hours or 30 min at different temperatures. FP values were taken and IC50 values were calculated.
(§2) Master mixtures containing fluorescein-labeled probe 1 and adiponectin receptor (AdipoR1 or AdiopR2, 2 µM and probe 1 at 100 nM) in a reaction volume of 19 µl were prepared and loaded to plates. The library compounds (10 µM –0.078 µM, half dilutions) were prepared separately and transferred into the assay plates. The first and last columns of each plate were used as positive and negative control wells. Wells containing the drug only were used as controls to detect auto-fluorescence of the compounds in the total fluorescence assay. After subtraction of the background signal, data was processed and the IC50 values were determined by non-linear least square fitting using SigmaPlot 11.0.
(§3) Given that the present study is a screening study, peptide 3 was chosen as the positive control for cost-efficiency purposes.
(§4) To optimize the FP assay properly, it was necessary to assess the stability of the FP assay. The conditions for the FP assay were established by testing various parameters including incubation temperature, time, TF values, ΔmP values, and DMSO tolerance. […] In summary, the competitive FP binding assay conditions ideal for identifying adiponectin receptor agonists are: i) 2 µM adiponectin receptor, ii) 100 nM probe 1, iii) 5% final DMSO concentration (v/v), and iv) incubation for 30 min at 25°C before reading the plate.
(§5) A pilot screen against the natural product library of 10,000 compounds described above was performed at screening concentrations of 10 µM to 0.078 µM (half serial dilutions) in 5% DMSO (v/v). Controls present in each assay plate consisted of 5% DMSO (negative control) or peptide 3 (positive control).
(§6) We screened a library of 10,000 natural compounds for adiponectin agonists. […] 46 compounds that could generate IC50 curves were identified as initial hits.

A further experiment addresses T2, AdipoR2 (UniProt Q86V24).
T2 sequence (Q86V24 1-386): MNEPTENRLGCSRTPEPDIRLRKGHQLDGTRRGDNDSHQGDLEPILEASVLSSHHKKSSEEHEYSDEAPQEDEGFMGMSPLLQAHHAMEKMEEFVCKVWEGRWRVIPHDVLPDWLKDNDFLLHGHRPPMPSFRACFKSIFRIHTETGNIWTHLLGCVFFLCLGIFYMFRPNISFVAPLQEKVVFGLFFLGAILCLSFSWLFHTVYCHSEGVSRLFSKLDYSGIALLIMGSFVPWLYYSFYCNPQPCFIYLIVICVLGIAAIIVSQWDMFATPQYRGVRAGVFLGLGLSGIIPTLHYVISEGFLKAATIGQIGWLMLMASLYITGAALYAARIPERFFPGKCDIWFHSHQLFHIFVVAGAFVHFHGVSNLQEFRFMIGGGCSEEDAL
The experiment can be described thus: Competitive FP assay, displacement of probe 1 from AdipoR2. It counts as binding, human. The note with it: 2 µM receptor, 100 nM probe 1, 30 min, 25°C. How it is done: as §1, §2, §3, §4, §5, §6

Experiment [1] concerns PPARα phosphorylation (AdipoR2 signaling) in MCF-7 cells. The experiment can be described thus: Western blot of PPARα phosphorylation in MCF-7 cells. It counts as cell-based, human. As to conditions: MCF-7 cells treated at IC50 concentration for 6 h. The method, then: Cells were grown to 80% confluence, harvested and aliquoted into 100 mm dishes in serum free media. Cells were allowed to attach overnight and then the serum free media was removed and then cells were washed in PBS twice. Different doses of compounds were prepared in the normal media and added to different dishes for an additional 6 h. Cells were washed 3 times with ice-cold PBS and cell lysates were prepared by scraping cells into lysis buffer A (RIPA buffer, 2 mM dithiothreitol […], 1×Halt protease inhibitor cocktail (Thermo scientific), and 1×Halt phosphatase inhibitor cocktail (Thermo scientific)). The cells were allowed to swell on ice (5 min), after which the homogenate was centrifuged. The supernatants were transferred to fresh tubes and protein concentrations were determined using the Bio-Rad protein assay (Bio-Rad Laboratories, Inc.) per manufacturer’s instructions. Aliquots of the cell lysates were stored at −80°C.
Equal amounts of total protein (50 µg) were subjected to electrophoresis (10% tris-HCl, 1.0 mm gels) and transferred to nitrocellulose membranes. Membranes were blocked in TBS containing 0.05% Tween 20 (TBST) and 5% nonfat milk or 5% BSA for 1 hour at room temperature. Appropriately diluted primary antibodies were incubated in TBST/5% nonfat milk or TBST/5% BSA for 2 h at room temperature or overnight at 4 °C. Membranes were washed in TBST three times for 15 min each. Appropriately diluted secondary antibodies were incubated in superblock blocking buffers (Thermo Scientific) for 1 h at room temperature. Membranes were washed in TBST three times for 15 min. Proteins were detected by Amersham™ ECL plus western blotting detection system (GE healthcare). The following antibodies were used: anti-AdipoR1 M18, anti-AdipoR2 C12 (Santa Cruz Biotechnology, Santa Cruz, CA), anti-p-AMPKα(T172), anti-AMPKα, and anti-β-actin (Cell Signaling, Danvers, MA).
It is well established that adiponectin activates AMPK and p38 MAPK through AdipoR1 or PPARα through AdipoR2 to mediate its downstream signaling cascades, [9], [12], [14]. […] The levels of phosphorylation of AMPK and phosphorylation of PPARα were examined and the relative expression levels of the phospho-protein to the total expression of protein levels were quantified using ImageJ software (NIH) ( Fig. 3 ).
Figure 3 Effects of hit compounds on adiponectin receptor signaling pathways. […] A total 50 µg of cell lysate was loaded to each lane. Western blot was performed follow the protocol in materials and methods section.

The mark [2] stands for this setting: primary screen, read-out: IC50 vs AdipoR1 (µM) Primary screen.
The mark [3] stands for this setting: validation, read-out: IC50 vs AdipoR1 (µM) Validated.
The mark [4] stands for this setting: primary screen, read-out: IC50 vs AdipoR2 (µM) Primary screen.
Where [5] appears, read: validation, read-out: IC50 vs AdipoR2 (µM) Validated.

Take `CN(C)Cc1c[nH]c2ccccc12` [Compound 9, Gramine]: the IC50 worked out at 4.5 µM at AdipoR1 (setting [2]), 4.2 ± 0.5 µM on AdipoR1 (setting [3]), 3.6 µM at AdipoR2 (setting [4]) and 3.2 ± 0.2 µM at AdipoR2 (setting [5]). Further, the “Effect on PPARα phosphorylation level” value in experiment [1] is listed as “inhibited”; in experiment [1] (listed as gramine) it was “decreased”.
Consider `COc1cc(C[C@H]2COC(=O)[C@@H]2Cc2ccc(O)c(OC)c2)ccc1O` [Compound 3, Matairesinol], for which the IC50 at AdipoR1 (setting [2]) was 0.9 µM; on AdipoR1 (setting [3]) it was 0.8 ± 0.2 µM; at AdipoR2 (setting [4]), more than 5 µM; at AdipoR2 (setting [5]), more than 5 µM. The “Effect on PPARα phosphorylation level” value in experiment [1] is listed as “inhibited”.
Turning to `C=C1C(=O)O[C@H]2[C@H]1CC/C(C)=C/CC[C@@]1(C)O[C@@H]21` [Compound 7, Parthenolide], the IC50 at AdipoR1 (setting [2]) is more than 5 µM; on AdipoR1 (setting [3]), more than 5 µM; at AdipoR2 (setting [4]), 1.5 µM; on AdipoR2 (setting [5]), 1.2 ± 0.1 µM. Moreover, the “Effect on PPARα phosphorylation level” value in experiment [1] was “increased”.
As for `COc1ccc(C[C@H]2COC(=O)[C@@H]2Cc2ccc(O[C@@H]3O[C@H](CO)[C@@H](O)[C@H](O)[C@H]3O)c(OC)c2)cc1OC` [Compound 1, Arctiin], the IC50 at AdipoR1 (setting [2]) was 1.2 µM; on AdipoR1 (setting [3]), 1.3 ± 0.2 µM; at AdipoR2 (setting [4]), more than 5 µM; at AdipoR2 (setting [5]) it was more than 5 µM. Besides, the “Effect on PPARα phosphorylation level” value in experiment [1] is on record as “inhibited”.
Take `COc1cc2c(c(OC)c1OC)-c1c(cc(OC)c(OC)c1OC)C[C@H](C)[C@H](C)C2` [Compound 4, Deoxyschizandrin]: the IC50 is more than 5 µM on AdipoR1 (setting [2]), more than 5 µM at AdipoR1 (setting [3]), 3.5 µM on AdipoR2 (setting [4]) and 3.2 ± 0.7 µM at AdipoR2 (setting [5]). For the same compound, the “Effect on PPARα phosphorylation level” value in experiment [1] is recorded as “increased”.
